Article PMC6321117, “Sulfonamide Inhibition Studies of a New β-Carbonic Anhydrase from the Pathogenic Protozoan Entamoeba histolytica” (International Journal of Molecular Sciences, 2018)
Read-outs that look alike come from different tables or passages of the source.

Tests used:
[1] = biological target: T1, EhiCA (β-carbonic anhydrase) (Entamoeba histolytica, UniProt C4LXK3); assay: biochemical
T1 sequence (C4LXK3 1-188): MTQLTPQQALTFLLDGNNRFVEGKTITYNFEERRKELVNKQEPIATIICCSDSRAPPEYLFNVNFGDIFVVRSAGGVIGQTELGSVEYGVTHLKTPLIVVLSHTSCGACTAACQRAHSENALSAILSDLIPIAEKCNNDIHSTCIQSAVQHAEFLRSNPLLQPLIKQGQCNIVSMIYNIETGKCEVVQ
Experimental: An Sx.18Mv-R Applied Photophysics (Oxford, UK) stopped-flow instrument has been used to assay the catalytic activity of various CA isozymes for CO2 hydration reaction. […] The uncatalyzed rates were determined in the same manner and subtracted from the total observed rates. Stock solutions of inhibitors (0.1 mM) were prepared in distilled-deionized water, and dilutions up to 1 nM were done thereafter with the assay buffer. Enzyme and inhibitor solutions were pre-incubated together for 15 min before assay, to allow for the formation of the enzyme–inhibitor complex. The inhibition constants were obtained by non-linear least-squares methods using PRISM 3 and the Cheng–Prusoff equation, as reported earlier.

hCA I = conditions: human recombinant isozyme, α class, stopped flow CO2 hydrase assay; cited from earlier work

Row | SMILES | Ki [1] | Ki (hCA I) | other results
1 | NS(=O)(=O)c1cccc(S(N)(=O)=O)c1 [Compound 3] | – | 0.079 µM | –
2 | Cc1ccc(S(N)(=O)=O)cc1 [Compound 4] | – | 78.5 µM | –
3 | O=C1NS(=O)(=O)c2ccccc21 [SAC, saccharin] | – | 18.5 µM | –
4 | CC1(C)O[C@@H]2[C@@H](CO[C@@]3(COS(N)(=O)=O)OC(C)(C)O[C@@H]23)O1 [TPM, topiramate] | – | – | Ki ([1]; KI EhiCA, β class, stopped-flow CO2 hydrase assay, 3 different assays, errors 5–10%): 3.1 µM

Continued, in another order:

Row | Ki [1] | SMILES | Ki (hCA I) | other results
5 | 6.01 µM | Nc1ccc(S(N)(=O)=O)cc1 [Compound 2] | – | –
6 | 0.383 µM | NS(=O)(=O)c1ccc(C(=O)O)cc1 [Compound 18, 4-carboxy-benzenesulfonamide] | – | –
7 | 0.79 µM | NS(=O)(=O)c1cc(Cl)c(Cl)c(S(N)(=O)=O)c1 [DCP, dichlorophenamide] | – | –
